Assay: Assay (I): Determination of Solubility (96-well plate, pH 3.0-11.0, organic solvent 0-70% w/w, UV absorption at 280 nm)
Type: physicochemical
Conditions: for Peptide concentration after 180 min / Peptide concentration after 24 h / Peptide concentration after 5 min: Method 1; for GLP-1 peptide concentration: Method 2 (precipitation), MeCN 57.3% w/w, 5° C.
Method: Assay (I): Determination of Solubility
96-Well Plate Preparation
96-well plates containing target peptide in a solid form were prepared in one of two ways:
Method 1 (evaporation): Addition of 100 μl stock solution of said peptide at a concentration of 4-6 mg/ml to each well of a 96-well half area plate (150 μl well size). Subsequently the solvent was evaporated by applying a vacuum until the solvent was completely removed.
Method 2 (precipitation): Addition of a certain volume of a stock solution of said peptide containing to each well of a 96-well half area plate followed by the addition of a certain volume of concentrated phosphoric acid to obtain a pH of 4.6 followed by addition of a certain volume of ethanol resulting in a final ethanol concentration of 20% v/v. Subsequently the plate was stored at 4° C. for 1 h and then centrifuged at 4,000 rpm for 20 min. Finally the supernatant was removed. The concentration of the stock solution was chosen in a way that the final amount of peptide after supernatant removal was >0.4 mg per well.
In both cases the stock solution was prepared by adding de-ionized water to a certain amount of powder of said peptide followed by a stepwise addition of small amounts of a concentrated sodium hydroxide solution until said peptide was completely in solution.
To determine solubility of a target peptide at different pH and organic solvent concentrations, two different buffer systems were used in independent experiments to cover the whole range from pH 3.0 to pH 11.0. Buffer system 1 covers pH 3.0-7.5 and buffer system 2 covers pH 7.5-11.0. For each buffer system 96 different solvent compositions were premixed in the following way: • 1. A low pH buffer (adjusted to either pH 3.0 or pH 7.5) and a high pH buffer (adjusted to either pH 7.5 or pH 11.0) were mixed at 8 different ratios to obtain values between pH 3.0 and pH 7.5 or pH 7.5 and pH 11.0, respectively. The total volume after mixing was 300 μl. • 2. 12 different amounts of organic solvent were then added to these buffers to obtain organic solvent (e.g. ethanol) concentrations between 0 and 70% w/w. • 3. Water was then added to obtain a total weight of 1.0 g of solvent in each well.
After preparing the 96 different solvent systems, 100 μl of each system was transferred to the 96-well plate containing the solid form of the target peptide (prepared as described in the section “96-well plate preparation”). The plate was then stored at a given temperature (between 5° C. and 70° C.) for a given time on a rotating shaker set to 400 rpm. At regular time intervals the plate was centrifuged (4,000 rpm for 10 min) and a 10 μl sample was taken from each well. The samples were then analysed by UV absorption at 280 nm for peptide quantification. Peptide concentration results are given as UV absorption at 280 nm of the sample subtracted UV absorption at 280 nm of a well comprising 10 μl water.
The buffers used were as follows: • Buffer system 1 (for the pH range from pH 3.0-7.5)
• Buffer system 2 (for the pH ranae from pH 7.5-11.0)
Solubility of liraglutide was determined using Assay (I) described herein. Liraglutide was prepared using Method 1 (evaporation) or Method 2 (precipitation) as described in subsection “96-well plate preparation”.

Peptide concentration after 180 min (MeCN 63.6% w/w, pH 9.5, 5° C.): 0.5 mg/mL
Peptide concentration after 24 h (MeCN 63.6% w/w, pH 9.5, 5° C.): 1.4 mg/mL
Peptide concentration after 5 min (MeCN 63.6% w/w, pH 10.0, 5° C.): 0.2 mg/mL
Peptide concentration after 180 min (MeCN 63.6% w/w, pH 10.0, 5° C.): 0.3 mg/mL
Peptide concentration after 24 h (MeCN 63.6% w/w, pH 10.0, 5° C.): 0.7 mg/mL
Peptide concentration after 5 min (MeCN 63.6% w/w, pH 10.5, 5° C.): 0.2 mg/mL
Peptide concentration after 180 min (MeCN 63.6% w/w, pH 10.5, 5° C.): 0.3 mg/mL
Peptide concentration after 24 h (MeCN 63.6% w/w, pH 10.5, 5° C.): 0.6 mg/mL
Peptide concentration after 5 min (MeCN 63.6% w/w, pH 11.0, 5° C.): 0.5 mg/mL
Peptide concentration after 180 min (MeCN 63.6% w/w, pH 11.0, 5° C.): 0.6 mg/mL
Peptide concentration after 24 h (MeCN 63.6% w/w, pH 11.0, 5° C.): 1.3 mg/mL
Peptide concentration after 5 min (MeCN 70.0% w/w, pH 5.6, 5° C.): 0.2 mg/mL
Peptide concentration after 180 min (MeCN 70.0% w/w, pH 5.6, 5° C.): 0.3 mg/mL
Peptide concentration after 24 h (MeCN 70.0% w/w, pH 5.6, 5° C.): 0.4 mg/mL
Peptide concentration after 5 min (MeCN 70.0% w/w, pH 6.2, 5° C.): 0.2 mg/mL
Peptide concentration after 180 min (MeCN 70.0% w/w, pH 6.2, 5° C.): 0.3 mg/mL
Peptide concentration after 24 h (MeCN 70.0% w/w, pH 6.2, 5° C.): 0.5 mg/mL
Peptide concentration after 5 min (MeCN 70.0% w/w, pH 6.9, 5° C.): 0.2 mg/mL
Peptide concentration after 180 min (MeCN 70.0% w/w, pH 6.9, 5° C.): 0.3 mg/mL
Peptide concentration after 24 h (MeCN 70.0% w/w, pH 6.9, 5° C.): 0.5 mg/mL
Peptide concentration after 5 min (MeCN 70.0% w/w, pH 7.5, 5° C.): 0.3 mg/mL
Peptide concentration after 180 min (MeCN 70.0% w/w, pH 7.5, 5° C.): 0.4 mg/mL
Peptide concentration after 24 h (MeCN 70.0% w/w, pH 7.5, 5° C.): 0.8 mg/mL
Peptide concentration after 5 min (MeCN 70.0% w/w, pH 8.0, 5° C.): 0.3 mg/mL
Peptide concentration after 180 min (MeCN 70.0% w/w, pH 8.0, 5° C.): 0.4 mg/mL
Peptide concentration after 24 h (MeCN 70.0% w/w, pH 8.0, 5° C.): 0.6 mg/mL
Peptide concentration after 5 min (MeCN 70.0% w/w, pH 8.5, 5° C.): 0.2 mg/mL
Peptide concentration after 180 min (MeCN 70.0% w/w, pH 8.5, 5° C.): 0.4 mg/mL
Peptide concentration after 24 h (MeCN 70.0% w/w, pH 8.5, 5° C.): 0.7 mg/mL
Peptide concentration after 5 min (MeCN 70.0% w/w, pH 9.0, 5° C.): 0.2 mg/mL
Peptide concentration after 180 min (MeCN 70.0% w/w, pH 9.0, 5° C.): 0.4 mg/mL
Peptide concentration after 24 h (MeCN 70.0% w/w, pH 9.0, 5° C.): 0.9 mg/mL
Peptide concentration after 5 min (MeCN 70.0% w/w, pH 9.5, 5° C.): 0.2 mg/mL
Peptide concentration after 180 min (MeCN 70.0% w/w, pH 9.5, 5° C.): 0.3 mg/mL
Peptide concentration after 24 h (MeCN 70.0% w/w, pH 9.5, 5° C.): 0.5 mg/mL
Peptide concentration after 5 min (MeCN 70.0% w/w, pH 10.0, 5° C.): 0.2 mg/mL
Peptide concentration after 180 min (MeCN 70.0% w/w, pH 10.0, 5° C.): 0.3 mg/mL
Peptide concentration after 24 h (MeCN 70.0% w/w, pH 10.0, 5° C.): 0.4 mg/mL
Peptide concentration after 5 min (MeCN 70.0% w/w, pH 10.5, 5° C.): 0.2 mg/mL
Peptide concentration after 180 min (MeCN 70.0% w/w, pH 10.5, 5° C.): 0.2 mg/mL
Peptide concentration after 24 h (MeCN 70.0% w/w, pH 10.5, 5° C.): 0.4 mg/mL
Peptide concentration after 5 min (MeCN 70.0% w/w, pH 11.0, 5° C.): 0.2 mg/mL
Peptide concentration after 180 min (MeCN 70.0% w/w, pH 11.0, 5° C.): 0.2 mg/mL
Peptide concentration after 24 h (MeCN 70.0% w/w, pH 11.0, 5° C.): 0.5 mg/mL
GLP-1 peptide concentration (pH 9.00, 5 min, after removal of outliers): 0.6 mg/mL
GLP-1 peptide concentration (pH 9.00, 5 min, before removal of outliers): 0.6 mg/mL
GLP-1 peptide concentration (pH 9.00, 180 min, after removal of outliers): 3.4 mg/mL
GLP-1 peptide concentration (pH 9.00, 180 min, before removal of outliers): 3.4 mg/mL
GLP-1 peptide concentration (pH 9.00, 24 h, after removal of outliers): 1.4 mg/mL
GLP-1 peptide concentration (pH 9.00, 24 h, before removal of outliers): 1.4 mg/mL
GLP-1 peptide concentration (pH 9.50, 5 min, after removal of outliers): 0.5 mg/mL
SMILES: CCCCCCCCCCCCCCCC(=O)N[C@@H](CCC(=O)NCCCC[C@H](NC(=O)[C@H](C)NC(=O)[C@H](C)NC(=O)[C@H](CCC(N)=O)NC(=O)CNC(=O)[C@H](CCC(=O)O)NC(=O)[C@H](CC(C)C)NC(=O)[C@H](Cc1ccc(O)cc1)NC(=O)[C@H](CO)NC(=O)[C@H](CO)NC(=O)[C@@H](NC(=O)[C@H](CC(=O)O)NC(=O)[C@H](CO)NC(=O)[C@@H](NC(=O)[C@H](Cc1ccccc1)NC(=O)[C@@H](NC(=O)CNC(=O)[C@H](CCC(=O)O)NC(=O)[C@H](C)NC(=O)[C@@H](N)Cc1cnc[nH]1)[C@@H](C)O)[C@@H](C)O)C(C)C)C(=O)N[C@@H](CCC(=O)O)C(=O)N[C@@H](Cc1ccccc1)C(=O)N[C@H](C(=O)N[C@@H](C)C(=O)N[C@@H](Cc1c[nH]c2ccccc12)C(=O)N[C@@H](CC(C)C)C(=O)N[C@H](C(=O)N[C@@H](CCCNC(=N)N)C(=O)NCC(=O)N[C@@H](CCCNC(=N)N)C(=O)NCC(=O)O)C(C)C)[C@@H](C)CC)C(=O)O [liraglutide, Arg34,Lys26-(N-epsilon-(gamma-L-glutamyl(N-alfa-hexadecanoyl)))-GLP-1(7-37)]

From patent publication US20210261642A1, “SOLUBILITY OF GLP-1 PEPTIDE” (Novo Nordisk A/S, priority 2017, published 2021)
